Assay results reported in US10745401B2, “Condensed lactam derivative” (Sumitomo Dainippon Pharma Co., Ltd., priority 2018, dated 2020).

How the values were obtained:
human 5-HT1A receptor [1] = biological target: T1, human 5-HT1A receptor (Homo sapiens (Human), UniProt P08908); assay: Test 1: binding activity for human 5-HT1A receptor ([3H]8-OH-DPAT, CHO cell membrane fraction)
Summary of the method: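 Membranes incubated with [3H]8-OH-DPAT and compound for 60 min at room temperature, then filtered on polyethylenimine-coated glass-fibre plates and counted by liquid scintillation. IC50 from Hill analysis; Ki = IC50/(1+S/Kd), Kd from saturation binding on the same membranes.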

human 5-HT1A receptor [2] = biological target: T1, human 5-HT1A receptor; assay: Test 2: agonist activity for human 5-HT1A receptor ([35S]GTPγS binding); format: biochemical; conditions: for EC50: [35S]GTPγS binding, concentration at which half the activity of Emax was obtained; for Emax at 10 µM: agonist activity in the presence of 10 μM of compound, relative to 100 μmol/L 5-HT
Summary of the method: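 [35S]GTPγS binding read-out: after 60 min at room temperature with test compound in GDP buffer, human 5-HT1A receptor CHO membranes were vacuum-filtered and retained radioactivity scintillation-counted. Agonist activity calculated by formula.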

human 5-HT2A receptor [3] = biological target: T2, human 5-HT2A receptor (Homo sapiens (Human), UniProt P28223); assay: Test 1: binding activity for human 5-HT2A receptor ([3H]Ketanserin, CHO cell membrane fraction)
T2 sequence (P28223 whole entry): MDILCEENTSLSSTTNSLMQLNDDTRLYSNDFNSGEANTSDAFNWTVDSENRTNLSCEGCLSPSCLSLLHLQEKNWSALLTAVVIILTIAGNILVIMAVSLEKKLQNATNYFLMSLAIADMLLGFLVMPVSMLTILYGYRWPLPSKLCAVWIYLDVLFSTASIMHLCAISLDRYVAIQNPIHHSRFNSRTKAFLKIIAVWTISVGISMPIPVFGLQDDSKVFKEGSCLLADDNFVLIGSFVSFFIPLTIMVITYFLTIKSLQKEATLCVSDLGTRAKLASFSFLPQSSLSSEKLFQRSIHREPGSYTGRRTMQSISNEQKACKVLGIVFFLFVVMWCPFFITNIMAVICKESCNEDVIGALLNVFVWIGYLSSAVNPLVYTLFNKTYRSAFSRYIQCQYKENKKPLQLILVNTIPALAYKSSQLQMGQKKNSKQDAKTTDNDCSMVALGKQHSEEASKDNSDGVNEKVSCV
Description: Test 1: Evaluation of Binding Activity for Human 5-HT1A Receptor, Human 5-HT2A Receptor, and Human D2 Receptor
Binding affinity of the present compound for human 5-HT1A receptor, human 5-HT2A receptor, and human D2 receptor was measured by the following procedures.
Each mixture was incubated at room temperature for 60 minutes. Then, the mixture was added quickly on a glassfiber filter plate (Multiscreen FB, Millipore, Inc.) coated with 0.3% aqueous polyethylenimine, and vacuum-filtered. Radioactivity remaining on the filter was measured with a liquid scintillation counter (PerkinElmer, Inc.). Binding inhibition rate was calculated from the following formula.
Ki of each compound was calculated from the following formula. Binding inhibition constant (Ki)=IC50/(1+S/Kd) wherein S is concentration of ligand; Kd is a binding dissociation constant of ligand to membrane, which is calculated from a saturated binding experiment conducted with the same cell membrane. A small Ki value means strong binding ability to a receptor.

human 5-HT2A receptor [4] = biological target: T2, human 5-HT2A receptor; assay: Test 3: antagonist activity for human 5-HT2A receptor (aequorin luminescence, CHO-K1 cells); format: cell-based; conditions: CHO-K1 cells, 1 nmol/L 5-HT
Description: Test 3: Evaluation of Antagonist Activity for Human 5-HT2A Receptor
Aequorin, Gα16 protein, and each receptor were transiently expressed in CHO-K1 cells (Chinese hamster ovary). […] Each compound dissolved in DMSO was added thereto, and changes in luminescence were measured by FDSS/μCELL functional drug screening system (Hamamatsu Photonics K.K.). Antagonist activity was calculated from the following formula. Antagonist activity (%)=100×{(Luminescence of well in the presence of 1 nmol/L 5-HT−Luminescence of well containing solvent)−(Luminescence of well in the presence of test compound and 1 nmol/L 5-HT−Luminescence of well containing solvent)}/(Luminescence of well in the presence of 1 nmol/L 5-HT−Luminescence of well containing solvent)

human D2 receptor = human D2 receptor (Homo sapiens (Human), UniProt P14416); assay: Test 1: binding activity for human D2 receptor ([3H]Spiperone, CHO cell membrane fraction); conditions: for Ki: human D2 receptor, [3H]Spiperone
Chain of human D2 receptor (P14416 whole entry): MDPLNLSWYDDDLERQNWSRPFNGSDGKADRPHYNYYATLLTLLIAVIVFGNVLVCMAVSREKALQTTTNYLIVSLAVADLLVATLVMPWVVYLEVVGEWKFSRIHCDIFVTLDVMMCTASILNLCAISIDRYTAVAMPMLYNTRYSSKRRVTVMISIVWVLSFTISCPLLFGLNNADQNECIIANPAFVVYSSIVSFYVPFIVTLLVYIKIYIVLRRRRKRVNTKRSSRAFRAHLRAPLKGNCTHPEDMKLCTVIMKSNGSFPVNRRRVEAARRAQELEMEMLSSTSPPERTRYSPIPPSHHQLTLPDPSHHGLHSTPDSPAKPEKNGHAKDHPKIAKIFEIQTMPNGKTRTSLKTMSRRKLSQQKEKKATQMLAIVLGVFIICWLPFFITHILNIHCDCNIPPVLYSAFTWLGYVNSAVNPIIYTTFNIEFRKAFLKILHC
Summary of the method: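 Compound displacement of [3H]ketanserin at 5-HT2A or [3H]spiperone at D2 was measured in CHO membrane fractions after 60 min at room temperature, with filtration and scintillation counting. IC50 was converted to Ki by Cheng–Prusoff using ligand concentration and Kd from saturation binding.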

[5] = Test 4: metabolic stability test in human hepatic microsome; format: in vitro ADME; conditions: 0.1 mg/mL microsome, 0.1 μmol/L compound, 37° C., 30 minutes
Summary of the method: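 LC-MS quantified remaining parent after 30 min, 37° C, in pH 7.4 25 mmol/L phosphate containing 0.1 mg/mL human hepatic microsomes, 3.2 mmol/L NADPH and 0.1 μmol/L test compound. Value given as −LN(residual ratio)/30/0.1, mL/min/mg protein.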

hERG channel = hERG channel (Homo sapiens (Human), UniProt Q12809); assay: Test 6-1: inhibitory activity for hERG channel (auto patch clamp, Qpatch); format: cell-based; conditions: for IC50: whole cell auto patch clamp, hERG-CHO cells, read-out: hERG inhibition IC50
Chain of hERG channel (Q12809 whole entry): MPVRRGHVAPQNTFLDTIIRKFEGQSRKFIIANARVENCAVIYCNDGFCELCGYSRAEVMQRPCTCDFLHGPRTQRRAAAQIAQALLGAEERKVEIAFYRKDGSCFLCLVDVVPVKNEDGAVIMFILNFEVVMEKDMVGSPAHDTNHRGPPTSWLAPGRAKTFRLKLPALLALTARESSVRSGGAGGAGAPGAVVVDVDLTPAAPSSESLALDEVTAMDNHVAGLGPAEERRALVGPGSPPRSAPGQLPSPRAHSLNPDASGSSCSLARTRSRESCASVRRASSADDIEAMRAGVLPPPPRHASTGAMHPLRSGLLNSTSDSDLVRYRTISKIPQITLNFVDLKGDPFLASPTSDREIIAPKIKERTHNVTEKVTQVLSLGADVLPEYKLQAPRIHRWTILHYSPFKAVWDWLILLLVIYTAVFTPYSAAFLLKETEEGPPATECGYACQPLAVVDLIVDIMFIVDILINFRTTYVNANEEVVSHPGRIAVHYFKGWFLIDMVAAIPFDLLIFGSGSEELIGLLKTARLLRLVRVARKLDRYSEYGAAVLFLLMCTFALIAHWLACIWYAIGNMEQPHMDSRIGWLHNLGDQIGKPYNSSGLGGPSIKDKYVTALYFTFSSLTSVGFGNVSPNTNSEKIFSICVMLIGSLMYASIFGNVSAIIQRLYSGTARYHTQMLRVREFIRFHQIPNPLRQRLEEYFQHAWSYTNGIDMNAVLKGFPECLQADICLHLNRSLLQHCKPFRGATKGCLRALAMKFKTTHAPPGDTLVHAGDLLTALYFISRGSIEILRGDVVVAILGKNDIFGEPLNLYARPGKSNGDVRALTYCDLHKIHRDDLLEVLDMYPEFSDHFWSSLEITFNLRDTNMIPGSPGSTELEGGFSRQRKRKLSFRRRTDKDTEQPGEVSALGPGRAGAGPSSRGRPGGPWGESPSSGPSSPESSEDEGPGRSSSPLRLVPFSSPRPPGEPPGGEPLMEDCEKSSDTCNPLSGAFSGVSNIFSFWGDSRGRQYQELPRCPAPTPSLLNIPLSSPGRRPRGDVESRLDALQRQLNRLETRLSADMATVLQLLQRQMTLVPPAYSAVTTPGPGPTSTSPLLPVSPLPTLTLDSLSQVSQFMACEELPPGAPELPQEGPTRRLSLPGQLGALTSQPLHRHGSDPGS
Summary of the method: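 Whole-cell patch clamp on an automated system using CHO cells stably expressing human hERG (IKr); 15 s pulse interval. Four increasing compound concentrations applied cumulatively; mean peak tail current from last 3 stimulations per concentration used. IC50 from inhibition versus pre-compound current, fitted by Hill equation.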

T1 sequence (P08908 whole entry): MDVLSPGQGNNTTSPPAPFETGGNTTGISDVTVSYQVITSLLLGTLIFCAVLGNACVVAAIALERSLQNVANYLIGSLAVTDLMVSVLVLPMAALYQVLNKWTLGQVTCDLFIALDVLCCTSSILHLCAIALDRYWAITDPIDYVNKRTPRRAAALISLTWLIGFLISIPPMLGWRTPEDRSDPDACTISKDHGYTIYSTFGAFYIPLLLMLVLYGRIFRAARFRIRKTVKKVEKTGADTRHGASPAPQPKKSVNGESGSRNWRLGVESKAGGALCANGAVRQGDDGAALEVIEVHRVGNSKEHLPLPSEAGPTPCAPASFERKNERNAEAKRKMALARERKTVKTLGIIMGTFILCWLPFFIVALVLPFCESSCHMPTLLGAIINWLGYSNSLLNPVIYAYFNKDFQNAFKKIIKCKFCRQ

| D2 Ki/5-HT1A Ki (human D2 receptor; selectivity ratio) | D2 Ki/5-HT2A Ki (human D2 receptor; selectivity ratio) | Compound | Ki (human 5-HT1A receptor [1]) | EC50 (human 5-HT1A receptor [2]) | Ki (human 5-HT2A receptor [3]) | IC50 (human 5-HT2A receptor [4]) | Ki (human D2 receptor) | Metabolic stability in human hepatic microsome [5] | IC50 (hERG channel) | Emax at 10 µM (human 5-HT1A receptor [2]) | hERG inhibition IC50 (nmol/L)/5-HT1A Ki (nmol/L) (hERG channel; ratio of hERG IC50 to 5-HT1A Ki) | hERG inhibition IC50 (nmol/L)/5-HT2A Ki (nmol/L) (hERG channel; ratio of hERG IC50 to 5-HT2A Ki) | IC50 (human 5-HT2A receptor [4]; aequorin luminescence) |
| --- | --- | --- | --- | --- | --- | --- | --- | --- | --- | --- | --- | --- | --- |
| – | – | O=c1c2cccnc2ccn1CCN1CCN(c2nsc3ccccc23)CC1 [Example 10] | 0.02 µM | 0.119 µM | 0.00049 µM | 0.00071 µM | – | – | – | – | – | – | – |
| – | – | O=C1c2ncccc2CCN1CCN1CCC(c2noc3ccccc23)CC1 [Example 22, 7-{2-[4-(1,2-Benzoisoxazol-3-yl)piperidin-1-yl]ethyl}-6,7-dihydro-1,7-naphthyridin-8(5H)-one] | – | – | 0.0044 µM | 0.094 µM | 2.6 µM | 0.039 mL/min/mg protein | 1.9 µM | 52% | – | – | – |
| – | – | Cn1cc2c(n1)C(=O)N(CCN1CCN(c3nsc4ccccc34)CC1)CCC2 [Example 49] | – | – | 0.0018 µM | 0.00702 µM | – | 0.063 mL/min/mg protein | 5.9 µM | 64% | – | – | – |
| – | – | Cc1nc2c(o1)CCCN(CCN1CCN(c3nsc4ccccc34)CC1)C2=O [Example 52] | – | – | 0.0047 µM | 0.012 µM | – | 0.043 mL/min/mg protein | 4.9 µM | 77% | – | – | – |
| – | – | O=C1c2cncnc2CCN1CCN1CCC(c2noc3ccccc23)CC1 [Example 57] | – | – | 0.0076 µM | 0.0767 µM | – | 0.013 mL/min/mg protein | 2.2 µM | 61% | – | – | – |
| – | – | Cn1cc2c(n1)CCN(CCN1CCN(c3noc4ccccc34)CC1)C2=O [Example 81] | – | – | 0.01 µM | 0.083 µM | – | <0.01 mL/min/mg protein | > 10 µM | 60% | – | – | – |
| – | – | CC1CN(CCN2CCC(c3noc4ccccc34)CC2)C(=O)c2ccn(C)c21 (stereo not shown) [Example 82] | – | – | 0.00087 µM | 0.046 µM | – | 0.072 mL/min/mg protein | 1.9 µM | 61% | – | – | – |
| – | – | CC1CN(CCN2CCN(c3noc4ccccc34)CC2)C(=O)c2ccn(C)c21 (stereo not shown) [Example 83] | – | – | 0.004 µM | 0.049 µM | – | 0.135 mL/min/mg protein | 8 µM | 61% | – | – | – |
| 17 | 538 | Cn1cnc2c1CCCN(CCN1CCC(c3noc4ccccc34)CC1)C2=O [Example 101, 5-{2-[4-(1,2-Benzoisoxazol-3-yl)piperidin-1-yl]ethyl}-1-methyl-5,6,7,8-tetrahydroimidazo[4,5-c]azepin-4(1H)-one] | 0.0601 µM | 0.612 µM | 0.0019 µM | 0.046 µM | 1.02 µM | – | 4.1 µM | 47% | 68 | 2165 | – |
| – | – | O=C1c2cnc(C(F)(F)F)cc2CCN1CCN1CCN(c2nsc3ccccc23)CC1 [Example 110, 2-{2-[4-(1,2-Benzoisothiazol-3-yl)piperazin-1-yl]ethyl}-6-(trifluoromethyl)-3,4-dihydro-2,7-naphthyridin-1(2H)-one] | – | – | 0.0026 µM | 0.0424 µM | – | 0.353 mL/min/mg protein | 2.4 µM | 65% | – | – | – |
| – | – | O=c1c2cccnc2ccn1CCN1CCN(c2noc3ccccc23)CC1 [Example 115] | – | – | 0.00107 µM | – | > 10 µM | <0.05 mL/min/mg protein | 5 µM | 37% | – | – | 0.00428 µM |
| – | – | Cc1cccc2c(C3CCN(CCN4CCc5cccnc5C4=O)CC3)noc12 [Example 120] | 0.34 µM | 0.63 µM | 0.091 µM | – | > 10 µM | – | – | – | – | – | 0.912 µM |
